In the NIST ThermoML archive (doi:10.1021/je400056z):

Experiment: xn = mol fraction of the nth substance listed
Conditions: Liquid, Vibrating tube method

CCCCCCCCCCCCC [tridecane] + O=C=O
Conditions | mass density [kg/m3]
323.16 K, 14000 kPa, x2 = 0.2526 | 751.2
323.16 K, 14000 kPa, x2 = 0.7549 | 788.1
323.16 K, 15000 kPa, x2 = 0.0955 | 748.5
323.16 K, 15000 kPa, x2 = 0.2526 | 752.1
323.16 K, 15000 kPa, x2 = 0.7549 | 791.5
323.16 K, 16000 kPa, x2 = 0.0955 | 749.2
323.16 K, 16000 kPa, x2 = 0.2526 | 752.9
323.16 K, 16000 kPa, x2 = 0.7549 | 794.6
323.16 K, 17000 kPa, x2 = 0.0955 | 750
323.16 K, 17000 kPa, x2 = 0.2526 | 753.7
323.16 K, 17000 kPa, x2 = 0.7549 | 798.1
323.16 K, 18000 kPa, x2 = 0.0955 | 750.7
323.16 K, 18000 kPa, x2 = 0.2526 | 754.4
323.16 K, 18000 kPa, x2 = 0.7549 | 801.2
323.16 K, 19000 kPa, x2 = 0.0955 | 751.4
323.16 K, 19000 kPa, x2 = 0.2526 | 755.2
323.16 K, 19000 kPa, x2 = 0.7549 | 804.1
323.16 K, 20000 kPa, x2 = 0.0955 | 752.1
323.16 K, 20000 kPa, x2 = 0.2526 | 755.9
323.16 K, 20000 kPa, x2 = 0.7549 | 807
323.16 K, 21000 kPa, x2 = 0.0955 | 752.8
323.16 K, 21000 kPa, x2 = 0.2526 | 756.6
323.16 K, 21000 kPa, x2 = 0.7549 | 809.5
323.16 K, 22000 kPa, x2 = 0.0955 | 753.4
323.16 K, 22000 kPa, x2 = 0.2526 | 757.3
323.16 K, 22000 kPa, x2 = 0.7549 | 812.4
323.16 K, 23000 kPa, x2 = 0.0955 | 754.1
323.16 K, 23000 kPa, x2 = 0.2526 | 758
323.16 K, 23000 kPa, x2 = 0.7549 | 815
323.16 K, 24000 kPa, x2 = 0.0955 | 754.7
323.16 K, 24000 kPa, x2 = 0.2526 | 758.7
323.16 K, 24000 kPa, x2 = 0.7549 | 817.5
323.16 K, 25000 kPa, x2 = 0.0955 | 755.3
323.16 K, 25000 kPa, x2 = 0.2526 | 759.3
323.19 K, 8000 kPa, x2 = 0.5259 | 758.8
323.19 K, 9000 kPa, x2 = 0.5259 | 760.1
323.19 K, 10000 kPa, x2 = 0.5259 | 761.4
323.19 K, 11000 kPa, x2 = 0.5259 | 762.6
323.19 K, 12000 kPa, x2 = 0.5259 | 763.8
323.19 K, 13000 kPa, x2 = 0.5259 | 764.9
323.19 K, 14000 kPa, x2 = 0.5259 | 766
323.19 K, 15000 kPa, x2 = 0.5259 | 767.2
323.19 K, 16000 kPa, x2 = 0.5259 | 768.2
323.19 K, 17000 kPa, x2 = 0.5259 | 769.3
323.19 K, 18000 kPa, x2 = 0.5259 | 770.4
323.19 K, 19000 kPa, x2 = 0.5259 | 771.4
323.19 K, 20000 kPa, x2 = 0.5259 | 772.4
323.19 K, 21000 kPa, x2 = 0.5259 | 773.3
323.19 K, 22000 kPa, x2 = 0.5259 | 774.3
323.19 K, 23000 kPa, x2 = 0.5259 | 775.3
323.19 K, 24000 kPa, x2 = 0.5259 | 776.2
323.19 K, 25000 kPa, x2 = 0.5259 | 777
333.14 K, 13000 kPa, x2 = 0.8978 | 737.1
333.14 K, 14000 kPa, x2 = 0.8978 | 745.4
333.14 K, 15000 kPa, x2 = 0.8978 | 754
333.14 K, 16000 kPa, x2 = 0.8978 | 761.2
333.14 K, 17000 kPa, x2 = 0.8978 | 767.9
333.14 K, 18000 kPa, x2 = 0.8978 | 774.1
333.14 K, 19000 kPa, x2 = 0.8978 | 779.5
333.14 K, 20000 kPa, x2 = 0.8978 | 784.8
333.14 K, 21000 kPa, x2 = 0.8978 | 789.8
333.14 K, 22000 kPa, x2 = 0.8978 | 794.7
333.14 K, 23000 kPa, x2 = 0.8978 | 799.2
333.14 K, 24000 kPa, x2 = 0.8978 | 803.5
333.14 K, 25000 kPa, x2 = 0.8978 | 807.8
333.16 K, 8000 kPa, x2 = 0.5259 | 749
333.16 K, 9000 kPa, x2 = 0.5259 | 750.4
333.16 K, 10000 kPa, x2 = 0.5259 | 751.7
333.16 K, 11000 kPa, x2 = 0.5259 | 753
333.16 K, 12000 kPa, x2 = 0.5259 | 754.2
333.16 K, 13000 kPa, x2 = 0.5259 | 755.5
333.16 K, 14000 kPa, x2 = 0.5259 | 756.7
333.16 K, 15000 kPa, x2 = 0.5259 | 757.9
333.16 K, 16000 kPa, x2 = 0.5259 | 759
333.16 K, 17000 kPa, x2 = 0.5259 | 760.2
333.16 K, 18000 kPa, x2 = 0.5259 | 761.3
333.16 K, 19000 kPa, x2 = 0.5259 | 762.4
333.16 K, 20000 kPa, x2 = 0.5259 | 763.4
333.16 K, 21000 kPa, x2 = 0.5259 | 764.5
333.16 K, 22000 kPa, x2 = 0.5259 | 765.5
333.16 K, 23000 kPa, x2 = 0.5259 | 766.5
333.16 K, 24000 kPa, x2 = 0.5259 | 767.5
333.16 K, 25000 kPa, x2 = 0.5259 | 768.5
333.28 K, 12000 kPa, x2 = 0.7549 | 762.3
333.28 K, 13000 kPa, x2 = 0.7549 | 766.5
333.28 K, 14000 kPa, x2 = 0.7549 | 769.6
333.28 K, 15000 kPa, x2 = 0.7549 | 772.6
333.28 K, 16000 kPa, x2 = 0.7549 | 775.6
333.28 K, 17000 kPa, x2 = 0.7549 | 778.6
333.28 K, 18000 kPa, x2 = 0.7549 | 781.5
333.28 K, 19000 kPa, x2 = 0.7549 | 784.5
333.28 K, 20000 kPa, x2 = 0.7549 | 787.4
333.28 K, 21000 kPa, x2 = 0.7549 | 790.4
333.28 K, 22000 kPa, x2 = 0.7549 | 793.1
333.28 K, 23000 kPa, x2 = 0.7549 | 795.7
333.28 K, 24000 kPa, x2 = 0.7549 | 798.4
333.28 K, 25000 kPa, x2 = 0.7549 | 800.8
333.3 K, 9000 kPa, x2 = 0.0955 | 736.6
333.3 K, 9000 kPa, x2 = 0.2526 | 739.5
333.3 K, 10000 kPa, x2 = 0.0955 | 737.4
333.3 K, 10000 kPa, x2 = 0.2526 | 740.4
333.3 K, 11000 kPa, x2 = 0.0955 | 738.3
333.3 K, 11000 kPa, x2 = 0.2526 | 741.4
333.3 K, 12000 kPa, x2 = 0.0955 | 739.1
333.3 K, 12000 kPa, x2 = 0.2526 | 742.3
333.3 K, 13000 kPa, x2 = 0.0955 | 739.9
333.3 K, 13000 kPa, x2 = 0.2526 | 743.1
333.3 K, 14000 kPa, x2 = 0.0955 | 740.8
333.3 K, 14000 kPa, x2 = 0.2526 | 744
333.3 K, 15000 kPa, x2 = 0.0955 | 741.6
333.3 K, 15000 kPa, x2 = 0.2526 | 744.9
333.3 K, 16000 kPa, x2 = 0.0955 | 742.3
333.3 K, 16000 kPa, x2 = 0.2526 | 745.7
333.3 K, 17000 kPa, x2 = 0.0955 | 743.1
